Data from publication PMC3378952, “Plasmodium subtilisin-like protease 1 (SUB1): Insights into the active-site structure, specificity and function of a pan-malaria drug target” (International Journal for Parasitology, 2012).
Values joined by “and” are separate entries in the source; they are usually repeats but may differ in a detail not shown here. Equal values may be shown once. *1 amine or outer side, *2 acyl side, *3 side chain or, on linkers, in order; H or OH if unused. Where a SMILES comes first, the peptide text is derived from it. Where no end group is shown, it is not given here. [ ]: non-standard residue; d: D form. The star is where a group is joined. ξ: configuration not given here. ξ3Amino2oxobutanoyl = CC(N[*:1])C(=O)C(=O)[*:2]; Abu(ψCOCO) = CC[C@H](N[*:1])C(=O)C(=O)[*:2]; AMC = Cc1cc(=O)oc2cc(N*)ccc12; βAla = NCCC(=O)O; NHcPr = C1CC1N*

Key:
[1] = target: T1, rPfSUB1cat (Plasmodium falciparum, UniProt Q8I0V0); assay: Cleavage of unlabelled and AMC peptide substrates by rPfSUB1cat (RP-HPLC); assay type: biochemical; conditions: for hydrolysis by rPfSUB1cat: prolonged incubations, data not shown; for reduction of substrate peak intensity: by 120 min digestion of equimolar mixture, RP-HPLC
T1 construct: core domain (rPfSUB1cat) comprising Ser328 to Tyr671; made in house; host or cells: baculovirus-infected insect cells (Tn5), then limited chymotrypsin digestion
Description: (SERA4st1F-6R12); Ac-CITAQDDEEC (called SERA4st1F-6R); and Ac-[…] (SERA4st1F-6R-S). […] Initial hydrolysis rates were then plotted against inhibitor concentration.
In a third approach to investigating the role of prime side interactions in PfSUB1–substrate recognition, we produced a modified form of the SERA4st1 peptide substrate (called SERA4st1-ADA) in which both the P1′ and P3′ residues were replaced by Ala. Based on our MD data, these substitutions would be predicted to abolish potentially important stabilizing interactions with the S′ surface of the enzyme. To compare cleavage efficiencies of SERA4st1 and SERA4st1-ADA, we used a previously-described method in which an equimolar mixture of the two peptides was supplemented with rPfSUB1cat and the rates of peptide hydrolysis established by RP-HPLC analysis of the resulting digestion products ([Child et al., 2010]). Under such conditions, because the peptides effectively act as competing substrates, their relative initial rates of hydrolysis are solely a function of the ability of PfSUB1 to discriminate between them, and so are directly proportional to their relative kcat/Km values, irrespective of their concentration ([Cornish-Bowden, 2004]).

[2] = target: T2, PbSUB1 (Plasmodium berghei, UniProt A0A509AM03); assay: biochemical
T2 construct: recombinant Plasmodium falciparum SUB1 catalytic domain (rPfSUB1cat; closed circles) and rPbSUB1cat (closed triangles); 6-His (C); made in house; host or cells: baculovirus-infected insect cells (Tn5), then limited chymotrypsin digestion
Description: (§1) Initial hydrolysis rates were then plotted against inhibitor concentration.

[3] = target: T3, rPvSUB1 (Plasmodium vivax, UniProt E6Y8B9); assay: biochemical; conditions: IC50 against rPvSUB1, dose-response
T3 construct: 6-His (C); made in house; host or cells: baculovirus-infected insect cells (Tn5), then limited chymotrypsin digestion
Description: as §1

[4] = target: rPfSUB1cat (recombinant P. falciparum SUB1 catalytic domain) (Plasmodium falciparum, UniProt Q8I0V0); assay: biochemical; conditions: for IC50: IC50 for steady-state inhibition of rPfSUB1cat, dose-response, substrate 0.1 μM
[5] = test system: PfSUB1; conditions: cited from earlier work
[6] = target: T1, rPfSUB1cat; assay type: biochemical; conditions: substrates 0.1 μM
Description: as §1

[7] = test system: rPbSUB1cat; conditions: substrates 0.1 μM
Description: as §1

[8] = target: T4, rPbSUB1 (Plasmodium berghei, UniProt A0A509AM03); assay: Cleavage of unlabelled N-acetylated decapeptides by rPbSUB1 (RP-HPLC); assay type: biochemical; conditions: RP-HPLC examination of digestion products
T4 construct: recombinant Plasmodium falciparum SUB1 catalytic domain (rPfSUB1cat; closed circles) and rPbSUB1cat (closed triangles); 6-His (C); made in house; host or cells: baculovirus-infected insect cells (Tn5), then limited chymotrypsin digestion

[9] = target: T5, recombinant Plasmodium falciparum subtilisin-like protease 1 (rPfSUB1), p54/p47 protease species (Plasmodium falciparum, UniProt O61142 218-690); assay: cell-based or functional assay
T5 sequence: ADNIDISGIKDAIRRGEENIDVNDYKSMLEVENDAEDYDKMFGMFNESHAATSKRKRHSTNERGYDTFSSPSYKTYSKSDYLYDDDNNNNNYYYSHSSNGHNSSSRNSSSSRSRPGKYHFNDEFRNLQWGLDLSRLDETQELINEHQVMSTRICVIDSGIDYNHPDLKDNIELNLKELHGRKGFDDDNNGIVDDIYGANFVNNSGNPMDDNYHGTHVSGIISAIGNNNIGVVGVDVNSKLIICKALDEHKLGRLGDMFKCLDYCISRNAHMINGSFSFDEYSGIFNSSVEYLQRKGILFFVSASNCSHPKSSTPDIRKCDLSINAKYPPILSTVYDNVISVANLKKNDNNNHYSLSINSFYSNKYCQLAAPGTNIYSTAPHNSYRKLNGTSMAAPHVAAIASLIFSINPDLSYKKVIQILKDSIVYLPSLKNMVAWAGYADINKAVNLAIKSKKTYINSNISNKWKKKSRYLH

[10] = ref Withers-Martinez et al., 2002

T4 sequence (A0A509AM03 257-574): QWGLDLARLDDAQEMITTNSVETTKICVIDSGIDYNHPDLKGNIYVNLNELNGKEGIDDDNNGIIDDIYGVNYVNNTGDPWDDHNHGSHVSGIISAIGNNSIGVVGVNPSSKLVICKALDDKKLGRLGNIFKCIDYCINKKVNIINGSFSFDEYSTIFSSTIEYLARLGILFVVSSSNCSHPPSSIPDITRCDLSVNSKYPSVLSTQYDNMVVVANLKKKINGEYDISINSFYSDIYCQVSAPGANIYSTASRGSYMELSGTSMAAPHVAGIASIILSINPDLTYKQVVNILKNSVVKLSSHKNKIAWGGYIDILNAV
T3 sequence (E6Y8B9 287-604): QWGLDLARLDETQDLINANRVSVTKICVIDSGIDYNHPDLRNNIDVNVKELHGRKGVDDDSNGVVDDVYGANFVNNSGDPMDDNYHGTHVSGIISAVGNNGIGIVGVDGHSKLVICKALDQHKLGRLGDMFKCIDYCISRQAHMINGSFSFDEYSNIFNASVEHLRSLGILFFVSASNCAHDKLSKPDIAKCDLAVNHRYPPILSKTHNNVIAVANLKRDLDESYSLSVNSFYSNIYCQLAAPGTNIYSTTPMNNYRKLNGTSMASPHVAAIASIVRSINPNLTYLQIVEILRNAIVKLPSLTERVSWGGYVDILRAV
T2 sequence (A0A509AM03 257-574): as the sequence (A0A509AM03 257-574) above

Molecule: CC[C@H](C)[C@H](NC(=O)[C@H](CCCCN)NC(C)=O)C(=O)N[C@H](C(=O)N[C@@H](C)C(=O)N[C@@H](CCC(N)=O)C(=O)Nc1ccc2c(C)cc(=O)oc2c1)[C@@H](C)O [Ac-KITAQ-AMC] (Ac-KITAQ-{AMC})
- hydrolysis by rPfSUB1cat [1]: completely resistant to hydrolysis

Molecule: CC[C@H](NC(=O)[C@H](C)NC(=O)[C@@H](NC(=O)[C@@H](NC(=O)[C@H](CCCCN)NC(C)=O)[C@@H](C)CC)[C@@H](C)O)C(=O)C(=O)NC1CC1 [KS-182] (Ac-KITA[Abu(ψCOCO)]-NHcPr)
- IC50 [2]: ≥ 100 µM
- IC50 [3]: ~12 µM and 12 µM
- Ki [4]: 7.3 µM
- IC50 [4]: ~6 µM and 6 µM

Molecule: CC[C@H](C)[C@H](NC(=O)[C@H](CCCCN)NC(C)=O)C(=O)N[C@H](C(=O)N[C@@H](C)C(=O)NC(C)C(=O)C(=O)NCCC(=O)O)[C@@H](C)O (stereo partly shown) [KS-466] (Ac-KITA[ξ3Amino2oxobutanoyl][βAla]-OH)
- IC50 [3]: 2 µM and ~2 µM
- Ki [4]: 0.7 µM
- IC50 [4]: 1 µM and ~1 µM

Molecule: O=S(=O)(F)Cc1ccccc1 [PMSF, phenylmethylsulfonyl fluoride]
- effect of PMSF on PfSUB1 [5, 10]: unaffected

Molecule: O=C(O)c1cc[c]([Hg][OH])cc1 [pHMB, para-hydroxymercuribenzoate]
- inhibition of PfSUB1 by pHMB [5, 10]: potently inhibited

Molecule: Ac-CITAQSDEEC (cysteine pairing not given here) [SERA4st1F-6R-S]
- effect of P1′ Asp to Ser substitution (vs SERA4st1F-6R) on cleavage by rPfSUB1cat [6]: no significant effect
- fold increase in initial hydrolysis rate by rPbSUB1cat vs SERA4st1F-6R [7]: 5.8 fold

Molecule: Ac-DVSGQ↓SENHQ [Ac-DVSGQ ↓ SENHQ]
- cleavage by rPbSUB1 at the expected position [8]: correctly cleaved

Molecule: Ac-EIKAET
- hydrolysis by rPfSUB1cat [1]: No hydrolysis

Molecule: Ac-KITAQADAES [SERA4st1-ADA, SERA4st1 with P1′ and P3′ residues replaced by Ala]
- reduction of substrate peak intensity [1]: ~1%
- initial cleavage rate, fold lower than that of parental SERA4st1 ([1]; equimolar mixture of both peptides, SERA4st1 digested ⩽20%): at least 80 fold

Molecule: Ac-KITAQDDEES [SERA4st1, N-acetylated decapeptide based on a PfSUB1 processing site in SERA4]
- reduction of substrate peak intensity [1]: 84.6%

Molecule: Ac-TTRAE↓SEEDI [Ac-TTRAE ↓ SEEDI]
- cleavage by rPbSUB1 at the expected position [8]: correctly cleaved

Molecule: Ac-TTSGQ↓SSTEP [Ac-TTSGQ ↓ SSTEP]
- cleavage by rPbSUB1 at the expected position [8]: correctly cleaved

Molecule: Ac-VVTGE↓SEETS [Ac-VVTGE ↓ SEETS]
- cleavage by rPbSUB1 at the expected position [8]: correctly cleaved

B1: PfSUB1 prodomain (PD) released by autocatalytic cleavage of rPfSUB1 (domain or fragment)
chain: KEVRSEENGKIQDDAKKIVSELRFLEKVEDVIEKSNIGGNEVDADENSFNPDTEVPIEEIEEIKMRELKDVKEEKNKNDNHNNNNNNNNISSSSSSSSNTFGEEKEEVSKKKKKLRLIVSENHATTPSFFQESLLEPDVLSFLESKGNLSNLKNINSMIIELKEDTTDDELISYIKILEEKGALIESDKLVS
- initial rate of cleavage of fluorogenic substrate SERA4st1F-6R12 (0.1 uM) by rPfSUB1cat (prodomain largely degraded) against an equivalent mass of untreated rPfSUB1 (with its prodomain) [9]: 9.8 fold
- inhibitor potency against cognate enzyme ([5]; ref Jean et al., 2003): ~0.005 µM
